Reference: patent US10131669B2, “Pyrazolopyrimidine compounds” (Pfizer Inc., priority 2014, dated 2018)
Structures can show the parent of a compound that is named as a salt.

Experiments:
Type in all cases: biochemical
[1] = target: T1, human PDE4D3 (Homo sapiens, UniProt Q08499); experiment: PDE4D3 Scintillation Proximity Assay (SPA), inhibition of enzyme activity; conditions: geometric mean of 2-7 determinations unless otherwise indicated (b: ≥8 determinations; c: single determination); 1 μM cAMP, 30 min at 25° C.; read-out: Human PDE4D FL; IC50
T1 construct: His6 (C); made in house; host or cells: insect cells (baculovirus, pFastBac)
T1 sequence (Q08499 186-808): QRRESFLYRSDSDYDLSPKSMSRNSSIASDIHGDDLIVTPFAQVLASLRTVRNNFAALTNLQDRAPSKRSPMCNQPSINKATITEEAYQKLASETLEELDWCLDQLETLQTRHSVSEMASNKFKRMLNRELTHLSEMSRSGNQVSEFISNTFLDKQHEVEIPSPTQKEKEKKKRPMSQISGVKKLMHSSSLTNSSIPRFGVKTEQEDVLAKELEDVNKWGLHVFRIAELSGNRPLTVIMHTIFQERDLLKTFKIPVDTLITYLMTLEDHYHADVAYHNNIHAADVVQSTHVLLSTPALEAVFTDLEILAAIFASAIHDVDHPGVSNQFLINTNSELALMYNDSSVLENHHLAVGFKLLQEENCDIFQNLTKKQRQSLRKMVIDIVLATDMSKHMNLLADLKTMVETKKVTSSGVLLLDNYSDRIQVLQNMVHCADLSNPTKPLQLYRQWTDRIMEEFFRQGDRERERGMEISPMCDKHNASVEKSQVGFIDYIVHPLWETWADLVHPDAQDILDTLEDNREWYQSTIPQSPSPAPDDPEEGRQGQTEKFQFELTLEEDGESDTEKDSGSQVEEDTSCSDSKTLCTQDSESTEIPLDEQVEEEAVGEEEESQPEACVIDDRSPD
Procedure: The recombinant Bacmid was isolated and used to transfect insect cells to generate a viral stock. To generate cell paste for purification, insect cells were infected and cells were harvested 72 hours after infection. Insect cell paste was lysed and after centrifugation, the supernatant was chromatographed on Ni-NTA agarose (Qiagen) as described in Seeger, T. F. et al., Brain Research 985 (2003) 113-126. Ni-NTA agarose eluting fractions containing PDE4 were pooled, diluted with Q Buffer A (50 mM Tris HCl pH 8, 4% glycerol, 100 mM NaCl, 1 mM TCEP, Protease inhibitors EDTA-free (Roche)) to reduce NaCl to ˜200 mM, and loaded on a Q Sepharose (GE Healthcare) column. After washing with Q buffer A to baseline, PDE4D was eluted with a gradient from 10% to 60% of Buffer B (50 mM Tris HCl pH 8, 1 M NaCl, 4% glycerol, 1 mM TCEP). PDE4D fractions were analyzed by SDS-PAGE Coomassie blue staining, pooled based on purity, frozen and stored at −80° C.
(§1) The PDE4A3, PDE4B1, PDE4C1 and PDE4D3 assays use the Scintillation Proximity Assay (SPA) technology to measure the inhibition of human recombinant […], PDE4C1, and PDE4D3 enzyme activity by compounds in vitro. The PDE4A1, PDE4B3, PDE4C1, and PDE4D3 assays are run in parallel using identical parameters, except for the concentration of enzyme (80 pM PDE4A3, 40 pM PDE4B3, 40 pM PDE4C1 and 10 pM PDE4D). The assays are performed in a 384-well format with 50 uL assay buffer (50 mM TRIS pH7.5; 1.3 mM MgCl2; 0.01% Brij) containing enough PDE4A3, PDE4B1, PDE4C1, and PDE4D to convert ˜20% of substrate (1 μM cAMP consisting of 20 nM 3H-cAMP+[…] cold cAMP) and a range of inhibitors. Reactions are incubated for 30 min at 25° C. The addition of 20 uL of 8 mg/ml yitrium silicate SPA beads (Perkin Elmer) stops the reaction. The plates are sealed (TopSeal, Perkin Elmer) and the beads are allowed to settle for 8 hrs, after which they are read on the Trilux Microbeta overnight.

[2] = target: T2, Human PDE4B1 (Homo sapiens, UniProt Q07343, S133E/S654A/S659A/S661A); experiment: PDE4B1 Scintillation Proximity Assay (SPA), inhibition of enzyme activity; conditions: geometric mean of 2-7 determinations unless otherwise indicated (b: ≥8 determinations; c: single determination); 1 μM cAMP, 30 min at 25° C.; read-out: Human PDE4B FL; IC50
T2 construct: His6 (N); thrombin cleavage site (N); made in house; host or cells: insect cells (baculovirus, pFastBac)
T2 sequence (Q07343 122-736 S133E/S654A/S659A/S661A): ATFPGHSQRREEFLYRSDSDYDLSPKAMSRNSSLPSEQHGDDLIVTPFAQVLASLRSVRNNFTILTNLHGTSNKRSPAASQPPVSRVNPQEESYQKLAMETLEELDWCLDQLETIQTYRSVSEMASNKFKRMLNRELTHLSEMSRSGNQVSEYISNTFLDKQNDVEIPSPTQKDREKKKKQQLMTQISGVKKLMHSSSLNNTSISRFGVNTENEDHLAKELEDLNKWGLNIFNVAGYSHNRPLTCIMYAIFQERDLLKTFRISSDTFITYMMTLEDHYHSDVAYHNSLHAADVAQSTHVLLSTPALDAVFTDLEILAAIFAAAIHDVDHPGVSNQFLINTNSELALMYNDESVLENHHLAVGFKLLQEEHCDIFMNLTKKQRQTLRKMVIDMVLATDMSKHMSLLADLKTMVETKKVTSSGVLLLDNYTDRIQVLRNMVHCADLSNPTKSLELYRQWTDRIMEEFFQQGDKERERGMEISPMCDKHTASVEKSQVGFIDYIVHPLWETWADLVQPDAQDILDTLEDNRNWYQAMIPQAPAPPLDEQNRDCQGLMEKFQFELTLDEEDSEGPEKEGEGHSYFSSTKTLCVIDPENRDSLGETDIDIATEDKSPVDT
Procedure: The recombinant Bacmid was isolated and used to transfect insect cells to generate a viral stock. To generate cell paste for purification, insect cells were infected with the virus stock and cells were harvested 72 hours after infection as described in Seeger, T. F. et al., Brain Research 985 (2003) 113-126. Insect cell paste was lysed and after centrifugation, the supernatant was chromatographed on Ni-NTA agarose (Qiagen) as described in Seeger, T. F. et al., Brain Research 985 (2003) 113-126. Ni-NTA agarose eluting fractions containing PDE4 were pooled, diluted with Q buffer A (20 mM Tris HCl pH 8, 5% glycerol, 1 mM TCEP) to reduce NaCl to ˜100 mM and loaded on a Source 15Q (GE Healthcare) column. After washing with Q buffer A/10% buffer B to baseline, PDE4D was eluted with a gradient from 10% to 60% of Buffer B (20 mM Tris HCl pH 8, 1 M NaCl, 5% glycerol, 1 mM TCEP). PDE4D fractions were analyzed by SDS-PAGE Coomassie blue staining, pooled based on purity, frozen and stored at −80° C.
as §1

[3] = target: T3, Human PDE4C1 (Homo sapiens, UniProt Q08493); experiment: PDE4C1 Scintillation Proximity Assay (SPA), inhibition of enzyme activity; conditions: geometric mean of 2-7 determinations unless otherwise indicated (b: ≥8 determinations; c: single determination), 1 μM cAMP, 30 min at 25° C., read-out: Human PDE4C FL
T3 construct: His6 (N); FLAG (C); made in house; host or cells: insect cells (baculovirus, pFastBac)
T3 sequence (Q08493 2-712): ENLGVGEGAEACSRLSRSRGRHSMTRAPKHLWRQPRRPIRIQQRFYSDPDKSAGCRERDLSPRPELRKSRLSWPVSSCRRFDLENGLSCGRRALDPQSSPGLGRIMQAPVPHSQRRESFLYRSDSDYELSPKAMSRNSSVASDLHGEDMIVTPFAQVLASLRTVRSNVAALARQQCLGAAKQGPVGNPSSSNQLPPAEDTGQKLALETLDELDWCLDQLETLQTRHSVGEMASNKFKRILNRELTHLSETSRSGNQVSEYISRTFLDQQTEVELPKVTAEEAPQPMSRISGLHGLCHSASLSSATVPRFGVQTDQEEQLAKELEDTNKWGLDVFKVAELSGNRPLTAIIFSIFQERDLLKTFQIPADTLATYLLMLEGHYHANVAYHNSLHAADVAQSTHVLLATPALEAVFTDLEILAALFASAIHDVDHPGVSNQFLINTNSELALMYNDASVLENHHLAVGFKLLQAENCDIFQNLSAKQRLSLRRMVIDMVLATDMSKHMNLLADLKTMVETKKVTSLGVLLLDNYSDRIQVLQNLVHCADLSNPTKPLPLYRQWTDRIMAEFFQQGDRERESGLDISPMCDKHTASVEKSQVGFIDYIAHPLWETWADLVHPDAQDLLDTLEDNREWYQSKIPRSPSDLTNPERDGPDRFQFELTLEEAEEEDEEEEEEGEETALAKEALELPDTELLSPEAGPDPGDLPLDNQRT
Procedure: (§2) The recombinant Bacmid was isolated and used to transfect insect cells to generate a viral stock. To generate cell paste for purification, insect cells were infected with the virus stock and cells were harvested 72 hours after infection. Insect cell paste was lysed and after centrifugation, the supernatant was batch bound to Ni-NTA agarose (GE Healthcare) and eluted with 250 mM imidazole. This eluate was diluted with FLAG buffer (50 mM Tris HCL pH 7.5, 100 mM NaCl, 5% Glycerol, 1 mM TCEP with protease inhibitors) and batch bound to ant-FLAG M2 agarose (Sigma) overnight at 4° C. The agarose was packed into a column, washed with buffer and eluted with buffer containing elute using 250 ug/ml Flag-peptide. Fractions were analyzed using SDS-PAGE Coomassie blue staining and pooled based on purity. Pooled fractions were chromatographed on a S200 120 ml column (GE Healthcare) in 50 mM Tris HCL pH 7.5, 150 mM NaCl, 10% Glycerol, 2 mM TCEP with protease inhibitors. PDE4C1 fractions were analyzed by SDS-PAGE Coomassie blue staining, pooled based on purity, dialyzed against 50 mM Tris HCL pH 7.5, 100 mM NaCl, 20% Glycerol, 2 mM TCEP, frozen and stored at −80° C.
as §1

[4] = target: T4, Human PDE4A3 (Homo sapiens, UniProt P27815); experiment: PDE4A3 Scintillation Proximity Assay (SPA), inhibition of enzyme activity; conditions: geometric mean of 2-7 determinations unless otherwise indicated (b: ≥8 determinations; c: single determination), 1 μM cAMP, 30 min at 25° C., read-out: Human PDE4A FL
T4 construct: His6 (N); FLAG (C); made in house; host or cells: insect cells (baculovirus, pFastBac)
T4 sequence (P27815 2-825 isoform P27815-6): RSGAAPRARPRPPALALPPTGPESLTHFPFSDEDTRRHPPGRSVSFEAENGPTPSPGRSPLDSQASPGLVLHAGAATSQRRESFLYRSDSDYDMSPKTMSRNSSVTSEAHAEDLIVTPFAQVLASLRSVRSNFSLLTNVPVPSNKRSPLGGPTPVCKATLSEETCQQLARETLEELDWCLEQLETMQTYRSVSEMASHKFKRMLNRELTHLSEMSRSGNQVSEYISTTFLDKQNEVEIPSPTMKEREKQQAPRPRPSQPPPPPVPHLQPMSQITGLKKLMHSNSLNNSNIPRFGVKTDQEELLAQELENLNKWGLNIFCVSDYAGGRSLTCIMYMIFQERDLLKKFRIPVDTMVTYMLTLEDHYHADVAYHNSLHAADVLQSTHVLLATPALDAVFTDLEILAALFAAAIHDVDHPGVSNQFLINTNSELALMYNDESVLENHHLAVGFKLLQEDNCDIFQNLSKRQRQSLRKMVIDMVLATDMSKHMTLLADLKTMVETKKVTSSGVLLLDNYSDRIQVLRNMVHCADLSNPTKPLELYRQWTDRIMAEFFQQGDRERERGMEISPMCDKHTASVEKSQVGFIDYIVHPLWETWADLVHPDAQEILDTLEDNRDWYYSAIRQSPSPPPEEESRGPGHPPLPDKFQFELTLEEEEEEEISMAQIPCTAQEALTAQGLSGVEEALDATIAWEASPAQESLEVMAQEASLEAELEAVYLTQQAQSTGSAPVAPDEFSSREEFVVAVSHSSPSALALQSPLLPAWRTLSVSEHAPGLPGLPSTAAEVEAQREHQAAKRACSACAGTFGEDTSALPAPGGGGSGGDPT
Text: as §2, with “Human PDE4A3 coding sequence (amino acids 2 to 825 from the sequence with accession number NP_001104779) was cloned into the baculovirus expression vector pFastBac (Invitrogen) engineered to include an N-terminal His6 affinity tag and a c-terminal FLAG affinity tag to aid in purification. The recombinant” for “The recombinant”, “protease inhibitors. PDE4A3 fractions were” for “protease inhibitors. PDE4C1 fractions were”
as §1

Compound	IC50 [1] [nM]	IC50 [2] [nM]	IC50 [3] [nM]	IC50 [4] [nM]
O=C(c1nn2cccnc2c1-c1cc(F)c(Cl)cc1F)N1CCC1 [Example 49, azetidin-1-yl[3-(4-chloro-2,5-difluorophenyl)pyrazolo[1,5-a]pyrimidin-2-yl]methanone]	1290	63.5	29.6	7.28
O=C(NC1(C(F)(F)F)CC1)c1nn2cccnc2c1-c1ccc(Cl)cc1 [Example 36, 3-(4-chlorophenyl)-N-[1-(trifluoromethyl)cyclopropyl]pyrazolo[1,5-a]pyrimidine-2-carboxamide, hydrochloride salt]	> 25200	452	452	67.2
Cc1cc(C#N)c(F)cc1-c1c(C(=O)NC2CC2)nn2cccnc12 [Example 23, 3-(4-cyano-5-fluoro-2-methylphenyl)-N-cyclopropylpyrazolo[1,5-a]pyrimidine-2-carboxamide]	442	25.9	39.4	8.42
O=C(NC1CC1)c1nn2cc(F)cnc2c1-c1cc(F)c(Cl)cc1F [Example 72, 3-(4-chloro-2,5-difluorophenyl)-N-cyclopropyl-6-fluoropyrazolo[1,5-a]pyrimidine-2-carboxamide]	43	3.02	5.18	0.77
Cc1cc(Cl)c(F)cc1-c1c(C(=O)NC2CCC2)nn2cccnc12 [Example 24, 3-(4-chloro-5-fluoro-2-methylphenyl)-N-cyclobutylpyrazolo[1,5-a]pyrimidine-2-carboxamide]	606	35.4	44	8.53
O=C(NC1CC1)c1nn2cc(F)cnc2c1-c1ccc(Cl)c(F)c1 [Example 59, 3-(4-chloro-3-fluorophenyl)-N-cyclopropyl-6-fluoropyrazolo[1,5-a]pyrimidine-2-carboxamide]	159	4.93	7.72	1.19
O=C(NC1CC1(F)F)c1nn2cccnc2c1-c1ccc(Cl)c(F)c1 (stereo not shown) [Example 39, 3-(4-chloro-3-fluorophenyl)-N-(2,2-difluorocyclopropyl)pyrazolo[1,5-a]pyrimidine-2-carboxamide]	300	12.9	66.3	23.2
CCNC(=O)c1nn2cccnc2c1-c1ccc(Cl)cc1 [Example 52, 3-(4-chlorophenyl)-N-ethylpyrazolo[1,5-a]pyrimidine-2-carboxamide]	5930	234	115	142
CNC(=O)c1nn2cccnc2c1-c1ccc(Cl)cc1 [Example 73, 3-(4-chlorophenyl)-N-methylpyrazolo[1,5-a]pyrimidine-2-carboxamide]	> 28500	2070	435	663
Cc1cc(C#N)c(F)cc1-c1c(C(=O)NC2CCC2)nn2cccnc12 [Example 22, 3-(4-cyano-5-fluoro-2-methylphenyl)-N-cyclobutylpyrazolo[1,5-a]pyrimidine-2-carboxamide]	8810	273	124	167
O=C(Nc1ncccn1)c1nn2cccnc2c1-c1ccc(Cl)cc1 [Example 8, 3-(4-Chlorophenyl)-N-(pyrimidin-2-yl)pyrazolo[1,5-a]pyrimidine-2-carboxamide]	> 25200	1090	965	190
Cc1cc(Cl)ccc1-c1c(C(=O)NC(C)C)nn2cccnc12 [Example 51, 3-(4-chloro-2-methylphenyl)-N-(propan-2-yl)pyrazolo[1,5-a]pyrimidine-2-carboxamide]	> 16500	488	314	144
O=C(NC1CC1)c1nn2cccnc2c1-c1cc(Cl)ccc1F [Example 13, 3-(5-chloro-2-fluorophenyl)-N-cyclopropylpyrazolo[1,5-a]pyrimidine-2-carboxamide]	2460	57.9	57.9	27.2
